Laboratory results from PMC9586938, “Picomolar fluorescent probes for compound affinity determination to carbonic anhydrase IX expressed in live cancer cells” (Scientific Reports, 2022).
Values joined by “and” are separate entries in the source; they are usually repeats but may differ in a detail not shown here. Equal values may be shown once. Read-outs that look alike come from different tables or passages of the source.

Tests used:
CAVI = target: T1, CAVI (Homo sapiens, UniProt P23280); experiment: Thermal shift assay (TSA), recombinant CAVI; assay type: binding; conditions: 37 °C, pH 7.0, observed (not intrinsic)
T1 construct: made in house; host or cells: E. coli
T1 sequence (P23280 18-308): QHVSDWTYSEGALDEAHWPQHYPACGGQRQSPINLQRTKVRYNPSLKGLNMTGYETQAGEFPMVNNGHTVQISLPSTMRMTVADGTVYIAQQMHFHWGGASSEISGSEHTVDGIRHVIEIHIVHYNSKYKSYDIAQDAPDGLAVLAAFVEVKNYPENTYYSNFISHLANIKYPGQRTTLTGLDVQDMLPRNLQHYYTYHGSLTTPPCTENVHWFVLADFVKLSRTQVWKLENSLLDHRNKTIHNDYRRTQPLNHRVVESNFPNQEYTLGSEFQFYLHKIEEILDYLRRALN
Protocol: (§1) The binding affinities of all fluorescein-containing compounds were determined for all 12 catalytically active CA isozymes by the thermal shift assay (TSA). […] However, the SFA technique cannot determine the affinities lower than the enzyme concentration used in the assay. […] In addition, we used isothermal titration calorimetry (ITC), the standard assay to determine affinity and enthalpy of protein–ligand binding. […] Therefore, ITC was used only to determine the enthalpy of interaction and confirm the ordering of compound affinities.
(§2) All twelve catalytically active human CA isozymes were prepared recombinantly as previously described. Isozymes CAIX, CAXII, and CAXIV were the catalytic domains of the proteins[14],[38]. All isozymes were expressed in E. coli except CAIX that has been prepared in mammalian cells. The proteins were chromatographically purified on ion-exchange or benzene sulfonamide containing affinity columns. Protein MW was confirmed by mass spectrometry with 1 Da precision as predicted from gene sequence.
(§3) Compound affinities for the twelve catalytically active CA isozymes were determined by the thermal shift assay as previously described[30],[39]. Protein solutions containing 1,8-anilinonaphthalenesulfonate fluorescent probe were heated from 25 to 100 °C at a rate of one degree per minute while following the fluorescence of the probe. The temperature scanning curves provided the melting temperature Tm of the protein. The Tm has a distinct dependence on the concentration of a compound. Stronger binders shift the Tm to a greater extent than the weak binders. The Tm dependencies on compound concentration were fit to obtain the affinity Kd[40].

[1] = target: T2, catalytic domain of recombinant human CAIX (Homo sapiens, UniProt Q16790); experiment: Thermal shift assay (TSA), recombinant CAIX catalytic domain; assay type: binding
T2 construct: Isozymes CAIX, CAXII, and CAXIV were the catalytic domains of the proteins; made in house; host or cells: mammalian cells

CAVB = target: T3, CAVB (Homo sapiens, UniProt Q9Y2D0); experiment: Thermal shift assay (TSA), recombinant CAVB; assay type: binding; conditions: 37 °C, pH 7.0, observed (not intrinsic)
T3 construct: made in house; host or cells: E. coli
T3 sequence (Q9Y2D0 34-317): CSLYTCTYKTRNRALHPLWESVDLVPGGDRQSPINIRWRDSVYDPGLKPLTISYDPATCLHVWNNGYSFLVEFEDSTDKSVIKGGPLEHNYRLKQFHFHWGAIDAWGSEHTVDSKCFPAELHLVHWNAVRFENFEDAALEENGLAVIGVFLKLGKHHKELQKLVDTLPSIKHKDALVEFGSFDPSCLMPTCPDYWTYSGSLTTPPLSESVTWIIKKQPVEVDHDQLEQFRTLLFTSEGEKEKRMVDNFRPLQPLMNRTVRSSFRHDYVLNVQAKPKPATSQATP

CAVII = target: T4, CAVII (Homo sapiens, UniProt P43166); experiment: Thermal shift assay (TSA), recombinant CAVII; assay type: binding; conditions: 37 °C, pH 7.0, observed (not intrinsic)
T4 construct: made in house; host or cells: E. coli
T4 sequence (P43166 whole entry): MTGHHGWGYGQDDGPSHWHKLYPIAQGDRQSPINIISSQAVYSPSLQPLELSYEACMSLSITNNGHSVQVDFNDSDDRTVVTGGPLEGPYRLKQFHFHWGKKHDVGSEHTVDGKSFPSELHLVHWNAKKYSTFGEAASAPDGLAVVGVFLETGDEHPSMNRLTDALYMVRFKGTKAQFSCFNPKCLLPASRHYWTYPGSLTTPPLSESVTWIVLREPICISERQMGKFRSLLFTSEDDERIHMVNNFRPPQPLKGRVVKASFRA

[2] = target: T5, CAIX expressed on live HeLa cells (Homo sapiens, UniProt Q16790); experiment: Competition of unlabeled compound with 10 nM GZ19-32 on hypoxic HeLa cells (competitive binding model); assay type: cell-based
T5 construct: recombinant CAIX and endogenous CAIX expressed on the cell surface; endogenous in cells; host or cells: HeLa (WT), grown under hypoxia (1% O2)

CAXIV = target: T6, CAXIV (Homo sapiens, UniProt Q9ULX7); experiment: Thermal shift assay (TSA), recombinant CAXIV; assay type: binding; conditions: 37 °C, pH 7.0, observed (not intrinsic)
T6 construct: Isozymes CAIX, CAXII, and CAXIV were the catalytic domains of the proteins; made in house; host or cells: E. coli
T6 sequence (Q9ULX7 20-278 limits assumed): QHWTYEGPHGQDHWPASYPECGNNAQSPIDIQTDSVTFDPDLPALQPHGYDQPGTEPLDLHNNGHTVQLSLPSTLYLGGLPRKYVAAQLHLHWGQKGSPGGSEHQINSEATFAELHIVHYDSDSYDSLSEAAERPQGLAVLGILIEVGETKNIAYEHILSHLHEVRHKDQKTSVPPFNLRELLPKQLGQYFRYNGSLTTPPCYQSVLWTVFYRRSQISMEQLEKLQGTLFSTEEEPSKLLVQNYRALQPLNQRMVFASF

hypoxic HeLa cells = experiment: XTT cell viability assay; assay type: cell-based, human; conditions: up to 1 µM, 3 h
Protocol: Potential cytotoxic effects on HeLa cells were determined by XTT assay. The XTT was carried out as previously described by Scudiero et al.[53]. HeLa cells were cultured under hypoxia (1% O2) for three days prior to measurements. Cells were detached from the plate with Accumax Cell Detachment Solution (ACM-1F; Capricorn Scientific, Ebsdorfergrund, Germany), washed and resuspended in HEPES-buffered saline (143 mM NaCl, 5 mM KCl, 2 mM CaCl2, 1 mM MgSO4, 1 mM Na2HPO4, 10 mM HEPES, pH 7.2). For each measurement, 100,000 cells were incubated with 1 nM or 1 µM of GZ18-23 for 3 h prior to adding the XTT (No. 38450, SERVA Electrophoresis GmbH, Heidelberg, Germany) / electron coupling reagent (PMS; No. 32030, SERVA). XTT-specific absorbance was measured at 492 nm using a microplate reader (Tecan Infinite F200; Tecan Trading AG, Männedorf, Switzerland). Background absorption was measured at 690 nm. Cells, which were not incubated in GZ18-23, were used as control (100%).

CAI = target: T7, CAI (Homo sapiens, UniProt P00915); experiment: Thermal shift assay (TSA), recombinant CAI; assay type: binding; conditions: 37 °C, pH 7.0, observed (not intrinsic)
T7 construct: made in house; host or cells: E. coli
T7 sequence (P00915 whole entry): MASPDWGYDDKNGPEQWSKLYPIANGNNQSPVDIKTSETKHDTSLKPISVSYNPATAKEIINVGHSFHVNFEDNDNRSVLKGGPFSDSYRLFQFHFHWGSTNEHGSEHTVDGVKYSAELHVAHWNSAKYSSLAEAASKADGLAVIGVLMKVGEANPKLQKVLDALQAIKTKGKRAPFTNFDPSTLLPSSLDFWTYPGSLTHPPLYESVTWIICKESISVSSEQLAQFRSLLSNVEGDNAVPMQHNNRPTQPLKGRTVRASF

CAXII = target: T8, CAXII (Homo sapiens, UniProt O43570); experiment: Thermal shift assay (TSA), recombinant CAXII; assay type: binding; conditions: 37 °C, pH 7.0, observed (not intrinsic)
T8 construct: Isozymes CAIX, CAXII, and CAXIV were the catalytic domains of the proteins; made in house; host or cells: E. coli
T8 sequence (O43570 30-289 limits assumed): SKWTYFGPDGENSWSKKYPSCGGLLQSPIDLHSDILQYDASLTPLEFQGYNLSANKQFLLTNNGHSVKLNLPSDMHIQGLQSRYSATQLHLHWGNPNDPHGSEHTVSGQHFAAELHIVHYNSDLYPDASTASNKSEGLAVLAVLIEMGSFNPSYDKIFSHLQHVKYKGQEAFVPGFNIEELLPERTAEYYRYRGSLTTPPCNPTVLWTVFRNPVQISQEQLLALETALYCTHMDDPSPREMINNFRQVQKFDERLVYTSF
Protocol: as §1, §2, §3

[3] = system: CA activity in hypoxic HeLa CAIX-KO cells; experiment: CA activity by gas-analysis mass spectrometry in live hypoxic HeLa CAIX-KO cells; assay type: cell-based, human
Protocol: (§4) Catalytic activity of CA in hypoxic human cervical adenocarcinoma (HeLa) cells was determined by monitoring the ^18O depletion of doubly labeled ^13C^18O2 through several hydration and dehydration steps with a quadrupole mass spectrometer (OmniStar GSD 320; Pfeiffer Vacuum, Asslar, Germany) as previously described[16],[51]. HeLa cells were cultured in Dulbecco’s Modified Eagle’s Medium–high glucose (D5671; Sigma Aldrich, Schnelldorf, Germany), supplemented with 10% fetal calf serum and 1% penicillin / streptomycin. The cell line was cultured under hypoxia (1% O2) for three days prior to measurements. Cells were detached from the plate with Accumax Cell Detachment Solution (ACM-1F; Capricorn Scientific, Ebsdorfergrund, Germany), washed and resuspended in HEPES-buffered saline (143 mM NaCl, 5 mM KCl, 2 mM CaCl2, 1 mM MgSO4, 1 mM Na2HPO4, 10 mM HEPES, pH 7.2). Approximately 3 × 10^6 cells, dissolved in 5 mL of HEPES-buffered saline (pH 7.2, RT), were used for every single measurement. […] For every measurement, the non-catalyzed reaction was determined for 12 min in the presence of inhibitor, before cell suspension was added to the measuring cuvette and the catalyzed reaction was determined for 12 min. […] IC50 values were determined by Hill1 fit using OriginPro 8.6 (OriginLab Corporation). CA enzymatic activity in units (U) was calculated as defined by Badger and Price[52]. […]

[4] = target: CAIX expressed on live A549 cells (Homo sapiens, UniProt Q16790); experiment: Competition of unlabeled compound with 10 nM GZ19-32 on hypoxic A549 cells (competitive binding model)
CAIII = target: T9, CAIII (Homo sapiens, UniProt P07451); experiment: Thermal shift assay (TSA), recombinant CAIII; assay type: binding; conditions: 37 °C, pH 7.0, observed (not intrinsic)
T9 construct: made in house; host or cells: E. coli
T9 sequence (P07451 whole entry): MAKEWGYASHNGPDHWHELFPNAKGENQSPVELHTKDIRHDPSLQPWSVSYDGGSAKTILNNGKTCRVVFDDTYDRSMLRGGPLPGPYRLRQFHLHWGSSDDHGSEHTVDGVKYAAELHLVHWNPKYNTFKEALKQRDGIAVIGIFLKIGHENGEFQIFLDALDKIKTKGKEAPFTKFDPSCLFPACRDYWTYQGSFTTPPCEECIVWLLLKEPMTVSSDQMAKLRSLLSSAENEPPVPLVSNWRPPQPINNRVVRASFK
Protocol: as §1, §2, §3

CAVA = target: T10, CAVA (Homo sapiens, UniProt P35218); experiment: Thermal shift assay (TSA), recombinant CAVA; assay type: binding; conditions: 37 °C, pH 7.0, observed (not intrinsic)
T10 construct: made in house; host or cells: E. coli
T10 sequence (P35218 39-305): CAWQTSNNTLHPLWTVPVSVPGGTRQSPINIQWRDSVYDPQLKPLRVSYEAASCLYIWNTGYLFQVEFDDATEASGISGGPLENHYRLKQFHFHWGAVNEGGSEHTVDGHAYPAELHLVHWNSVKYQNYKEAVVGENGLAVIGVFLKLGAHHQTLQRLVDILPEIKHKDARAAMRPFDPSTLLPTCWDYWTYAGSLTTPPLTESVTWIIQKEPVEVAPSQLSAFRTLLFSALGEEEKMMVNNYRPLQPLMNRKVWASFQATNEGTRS
Protocol: as §1, §2, §3

[5] = system: CA activity in hypoxic HeLa WT cells; experiment: CA activity by gas-analysis mass spectrometry in live hypoxic HeLa WT cells; assay type: cell-based, human; conditions: Fig. 7A
Protocol: as §4

CAII = target: T11, CAII (Homo sapiens, UniProt P00918); experiment: Thermal shift assay (TSA), recombinant CAII; assay type: binding; conditions: 37 °C, pH 7.0, observed (not intrinsic)
T11 construct: made in house; host or cells: E. coli
Protocol: as §1, §2, §3

CAIV = target: T12, CAIV (Homo sapiens, UniProt P22748); experiment: Thermal shift assay (TSA), recombinant CAIV; assay type: binding; conditions: 37 °C, pH 7.0, observed (not intrinsic)
T12 construct: made in house; host or cells: E. coli
T12 sequence (P22748 19-312): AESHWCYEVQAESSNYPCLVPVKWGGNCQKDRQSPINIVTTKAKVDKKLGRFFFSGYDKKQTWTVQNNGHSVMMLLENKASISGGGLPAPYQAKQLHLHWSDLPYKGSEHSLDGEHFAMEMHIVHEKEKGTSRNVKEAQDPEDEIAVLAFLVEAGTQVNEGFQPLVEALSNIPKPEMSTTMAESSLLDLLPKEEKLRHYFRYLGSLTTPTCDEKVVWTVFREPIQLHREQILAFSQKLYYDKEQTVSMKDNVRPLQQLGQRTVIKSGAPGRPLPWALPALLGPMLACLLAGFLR

CAXIII = target: T13, CAXIII (Homo sapiens, UniProt Q8N1Q1); experiment: Thermal shift assay (TSA), recombinant CAXIII; assay type: binding; conditions: 37 °C, pH 7.0, observed (not intrinsic)
T13 construct: made in house; host or cells: E. coli
T13 sequence (Q8N1Q1 whole entry): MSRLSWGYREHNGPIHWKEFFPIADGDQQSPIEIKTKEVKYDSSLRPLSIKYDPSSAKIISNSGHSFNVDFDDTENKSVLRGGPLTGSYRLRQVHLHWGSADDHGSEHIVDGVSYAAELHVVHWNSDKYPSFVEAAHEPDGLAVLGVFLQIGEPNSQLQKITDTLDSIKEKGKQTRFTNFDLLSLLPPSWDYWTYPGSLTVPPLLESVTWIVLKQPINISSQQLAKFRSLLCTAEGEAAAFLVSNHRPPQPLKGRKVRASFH

With NS(=O)(=O)c1c(F)c(F)c(S(=O)(=O)CCC(=O)O)c(NC2CCCCCCC2)c1F [GZ18-23, 3-((2-(cyclooctylamino)-3,5,6-trifluoro-4-sulfamoylphenyl)sulfonyl)propanoic acid] the Kd (CAVI) was 140 nM, the Kd ([1]; TSA, 37 °C, pH 7.0, observed (not intrinsic), read-out: Kd CAIX) was 0.033 nM and the “selectivity for CAIX over CAVII” value ([1]; ratio of Kd) was 1000 ×. For the same compound, the “selectivity for CAIX over CAXII” value ([1]; ratio of Kd) was 30 fold, the “selectivity for CAIX over CAXIII” value ([1]; ratio of Kd) was 300 × and the “selectivity for CAIX over CAXIV” value ([1]; ratio of Kd) was 100 fold. For the same compound, the “selectivity for CAIX over the remaining CA isozymes” value ([1]; ratio of Kd) was “more than 3000 ×”, the Kd ([1]; recombinant CAIX, read-out: Kd for CAIX) was 0.03 nM and the Kd ([1]; recombinantly purified CAIX, read-out: Kd for purified CAIX by TSA) was 0.033 nM. For the same compound, the Kd (CAVB) was 160 nM, the Kd (CAVII) was 43 nM and the “dosing midpoint of competition curve” value ([2]; 10 nM GZ19-32, Fig. 12) was “around 10 nM”. The Kd ([2]; HeLa cells grown under hypoxia, mixture with 10 nM GZ19-32, 20 min incubation, read-out: KdA, nM (competitive binding model)) was 0.3 nM, the “difference between affinity for CAIX on cells and purified CAIX” value ([2]; lower affinity on cells) was 3 to 10 factor and the Kd (CAXIV) was 3.3 nM. For the same compound, the “viability of hypoxic HeLa cells” value (hypoxic HeLa cells) was “did not affect the viability”, the melting point was 143 to 144 °C and the Kd (CAI) was 5000 nM. The Kd (CAXII) was 1 nM and 1.4 nM, the “effect on CA activity” value [3] was “no effect” and the Kd [4] was 0.22 nM. The Kd (CAIII) was greater than 200000 nM, the Kd (CAVA) was 12500 nM and the IC50 ([5]; Homo sapiens, hypoxic HeLa cells, gas-analysis MS, read-out: k, inhibition of CA activity (Hill fit)) was 0.92 nM. For the same compound, the “overall CA activity remaining uninhibited” value ([5]; hypoxic HeLa WT cells) was “approximately 20%”, the Kd (CAII) was 160 nM and the Kd (CAIV) was 120 nM. It also gave a Kd (CAXIII) of 10 nM.
